The first data set concerns the target T1, CDK1/cyclinB1 (Homo sapiens, UniProt P06493).
T1 construct: made in house; host or cells: High Five insect cells (Trichoplusia ni), baculovirus coinfection
The data set is described as follows: Cyclin B1-CDK1 kinase inhibition test. The following applies: CDK1 tests (Example 13); recombinant cyclin B1/CDK1, substrate histone H1; read-out: CDK1/cyclinB1 IC50 value. Format: biochemical. The essentials:
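Baculovirus-expressed CDK1/cyclin B1 phosphorylated histone H1 with ATP mix containing 0.045 mM ATP plus ^33P-ATP for 30 min at 30 °C. Protein was precipitated with TCA and filter-bound radioactivity read by scintillation counting. Olomoucin at 30 and 300 μM final served as internal control.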
T1 sequence (P06493 whole entry): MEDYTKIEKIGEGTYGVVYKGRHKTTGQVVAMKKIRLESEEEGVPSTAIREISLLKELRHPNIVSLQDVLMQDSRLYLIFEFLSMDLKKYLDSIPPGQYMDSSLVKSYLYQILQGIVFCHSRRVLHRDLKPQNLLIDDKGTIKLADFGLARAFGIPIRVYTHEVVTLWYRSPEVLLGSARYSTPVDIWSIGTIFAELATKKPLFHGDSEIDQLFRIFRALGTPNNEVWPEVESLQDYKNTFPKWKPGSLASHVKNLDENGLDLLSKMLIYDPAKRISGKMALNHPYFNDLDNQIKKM
T1 sequence (P14635 whole entry partner): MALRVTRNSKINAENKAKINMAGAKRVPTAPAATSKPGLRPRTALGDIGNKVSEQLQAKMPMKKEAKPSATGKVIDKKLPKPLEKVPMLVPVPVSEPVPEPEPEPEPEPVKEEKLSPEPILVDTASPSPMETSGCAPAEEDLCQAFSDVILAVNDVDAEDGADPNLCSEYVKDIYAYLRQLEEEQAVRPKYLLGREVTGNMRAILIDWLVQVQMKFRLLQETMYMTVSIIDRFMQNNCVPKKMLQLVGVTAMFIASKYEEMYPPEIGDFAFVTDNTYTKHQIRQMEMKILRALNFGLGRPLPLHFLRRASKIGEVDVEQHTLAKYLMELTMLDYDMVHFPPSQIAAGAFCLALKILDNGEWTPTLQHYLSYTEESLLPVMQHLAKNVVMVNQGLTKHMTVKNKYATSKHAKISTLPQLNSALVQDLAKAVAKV
Regarding `CC(=O)NCCNc1nc(Nc2cccc(NC(C)=O)c2)ncc1C(F)(F)F` [Example 10(000), N-(2-[2-(3-acetylamino-phenylamino)-5-trifluoromethyl-pyrimidin-4-ylamino]-ethyl)-acetamide], the IC50 is less than 0.1 µM.
On the same count and under the same terms, next, `CC(=O)NCCNc1nc(Nc2ccc(C(=O)N(C)C)c(Cl)c2)ncc1C(F)(F)F` [Example 8(007), 4-[4-(2-acetylamino-ethylamino)-5-trifluoromethyl-pyrimidin-2-ylamino]-2-chloro-N,N-dimethyl-benzamide]: less than 0.1 µM; `O=C1CCCN1CCCNc1nc(Nc2ccc(CO)cc2)ncc1C(F)(F)F` [Example 2(052), 1-{3-[2-(4-Hydroxymethyl-phenylamino)-5-trifluoromethyl-pyrimidin-4-ylamino]-propyl}-pyrrolidin-2-one]: less than 0.1 µM.
Still for that read-out and setting: as for `NCCNc1nc(Nc2ccc(S(=O)(=O)N3CCOCC3)cc2)ncc1C(F)(F)F` [Example 1(689), N4-(2-amino-ethyl)-N2-[4-(morpholine-4-sulphonyl)-phenyl]-5-trifluoromethyl-pyrimidine-2,4-diamine], the figure is less than 0.1 µM; as for `FC(F)(F)c1cnc(Nc2cccc(Br)c2)nc1N1CCc2[nH]cnc2C1` [Example 1(038), 2-(3-bromo-phenylamino)-4-(1,4,6,7-tetrahydro-imidazo[4,5-c]pyridin-5-yl)-5-trifluoromethyl-pyrimidine], less than 0.1 µM; as for `O[C@H]1CC[C@@H](Nc2nc(Nc3ccc(Cl)c(Cl)c3)ncc2C(F)(F)F)CC1` [Example 1(037), 2-(3,4-dichloro-phenylamino)-4-(cis-4-hydroxy-cyclohexylamino)-5-trifluoromethyl-pyrimidine], less than 0.1 µM.
With `O=[N+]([O-])c1ccccc1CNc1nc(Nc2ccc(Cl)c(Cl)c2)ncc1C(F)(F)F` [Example 1(016), 2-(3,4-dichloro-phenylamino)-4-(2-nitrobenzylamino)-5-trifluoromethyl-pyrimidine], the IC50 was less than 0.1 µM.
In the case of `CC(=O)NCCNc1nc(Nc2ccc(Br)cc2)ncc1C(F)(F)F` [Example 2(007), 2-(4-bromophenylamino)-4-(2-acetylamino-ethylamino)-5-trifluoromethyl-pyrimidine], the IC50 is less than 0.1 µM.
Still for that read-out and setting: as for `CN(C)S(=O)(=O)c1ccc(Nc2ncc(Cl)c(N3CCc4[nH]cnc4C3)n2)cc1` [Example 2(136), 4-[5-Chloro-4-(1,4,6,7-tetrahydro-imidazo[4,5-c]pyridin-5-yl)-pyrimidin-2-ylamino]-N,N-dimethyl-phenylsulphonamide], the figure is less than 0.1 µM; as for `O=S(=O)(c1ccc(Nc2ncc(C(F)(F)F)c(N3CCc4nc[nH]c4C3)n2)cc1)N1CCOCC1` [Example 1(695), [4-(Morpholin-4-sulphonyl)-phenyl]-[4-(3,4,6,7-tetrahydro-imidazo[4,5-5]pyridin-5-yl)-5-trifluoromethyl-pyrimidin-2-yl]-amine], less than 0.1 µM; as for `Brc1cnc(Nc2ccc3cn[nH]c3c2)nc1N1CCc2nc[nH]c2CC1` [Example 2(141), [5-Bromo-4-(4,5,7,8-tetrahydro-1H-imidazo[4,5-d]azepin-6-yl)-pyrimidin-2-yl]-(1H-indazol-6-yl)-amine], less than 0.1 µM.
Still for that read-out and setting: as for `C#Cc1cnc(Nc2ccc(S(=O)(=O)N(C)C)cc2)nc1NCCNC(C)=O` [Example 4(001), N-{2-[2-(4-dimethylsulphamoyl-phenylamino)-5-ethynyl-pyrimidin-4-ylamino]-ethyl}-acetamide], the figure is less than 0.1 µM; as for `O=[N+]([O-])c1cnc(Nc2ccc(F)c(Cl)c2)nc1N1CCc2[nH]cnc2C1` [Example 1(015), 2-(3-chloro-4-fluoro-phenylamino)-4-(1,4,6,7-tetrahydro-imidazo[4,5-c]pyridin-5-yl)-5-nitro-pyrimidine], less than 0.1 µM; as for `O=C(Nc1ccccc1)c1ccc(Nc2ncc([N+](=O)[O-])c(N3CCc4[nH]cnc4C3)n2)cc1` [Example 1(026), 2-(4-phenylaminocarbonyl-phenylamino)-4-(1,4,6,7-tetrahydro-imidazo[4,5-c]pyridin-5-yl)-5-nitro-pyrimidine], less than 0.1 µM.
On the same count and under the same terms, as for `NCC1CCC(CNc2nc(Nc3ccccc3)ncc2C(F)(F)F)CC1` (stereo not drawn) [Example 1(033), 2-phenylamino-4-(4-aminomethyl-cyclohexylmethylamino)-5-trifluoromethyl-pyrimidine], the figure is less than 0.1 µM.
With `CC(=O)NCCNc1nc(Nc2ccccc2)ncc1C(F)(F)F` [Example 2(062), N-[2-(2-phenylamino-5-trifluoromethylpyrimidin-4-ylamino)-ethyl]-acetamide], the IC50 was less than 0.1 µM.
Still for that read-out and setting: next, `CC(C)C(=O)NCCCNc1nc(Nc2ccc3cnn(C)c3c2)ncc1C(F)(F)F` [Example 7(002), N-{3-[2-(1-methyl-1H-indazol-6-ylamino)-5-trifluoromethyl-pyrimidin-4-ylamino]-propyl}-isobutyramide]: less than 0.1 µM; `CC(=O)NCCNc1nc(Nc2cc(Cl)cc(Cl)c2)ncc1C(F)(F)F` [Example 2(015), 2-(3,5-Dichloro-phenylamino)-4-(2-acetylamino-ethylamino)-5-trifluoromethyl-pyrimidine]: less than 0.1 µM.
Same read-out and setting: next, `CCC(=O)NCCCNc1nc(Nc2ccc3cnn(C)c3c2)ncc1C(F)(F)F` [Example 7(006), N-{3-[2-(1-methyl-1H-indazol-6-ylamino)-5-trifluoromethyl-pyrimidin-4-ylamino]-propyl}-propionamide]: less than 0.1 µM.
Still for that read-out and setting: as for `O=C1CCCN1CCCNc1nc(Nc2cc(Cl)cc(Cl)c2)ncc1C(F)(F)F` [Example 1(049), 2-(3,5-dichloro-phenylamino)-4-(3-(2-oxo-pyrrolidin-1-yl)-propyl-1-amino)-5-trifluoromethyl-pyrimidine], the figure is less than 0.1 µM; as for `Cn1ncc2ccc(Nc3ncc(C(F)(F)F)c(NCCCNS(=O)(=O)c4ccc(F)cc4)n3)cc21` [Example 7(012), 4-fluoro-N-{3-[2-(1-methyl-1H-indazol-6-ylamino)-5-trifluoromethyl-pyrimidin-4-ylamino]-propyl}-benzensulphonamide], less than 0.1 µM; as for `CC(=O)NC(C)(C)CNc1nc(Nc2ccc(S(=O)(=O)N3CCOCC3)cc2)ncc1C(F)(F)F` [Example 1(685), N-(1,1-dimethyl-2-{2-[4-(morpholine-4-sulphonyl)-phenylamino]-5-trifluoromethyl-pyrimidin-4-ylamino}-ethyl)-acetamide], less than 0.1 µM.
For `O=C(O)CCc1ccc(Nc2ncc(C(F)(F)F)c(NCCc3cccc(O)c3)n2)cc1` [Example 1(046), 2-(4-(2-carboxy-1-ethyl)-phenylamino)-4-(2-(3-hydroxyphenyl)-1-ethyl-amino)-5-trifluoromethyl-pyrimidine], the IC50 was less than 0.1 µM.
As for `CC(=O)NCCNc1nc(Nc2ccc(S(=O)(=O)N(C)C)cc2)ncc1C(F)(F)F` [Example 2(047), N-{2-[2-(4-Dimethylsulphamoyl-phenylamino)-5-trifluoromethyl-pyrimidin-4-ylamino]-ethyl}-acetamide], the IC50 is less than 0.1 µM.
`COCCNc1nc(Nc2ccc(Cl)c(Cl)c2)ncc1C(F)(F)F` [Example 1(093), 2-(3,4-dichloro-phenylamino)-4-(2-methoxy-1-ethylamino)-5-trifluoromethyl-pyrimidine]: the IC50 is less than 0.1 µM.
Still for that read-out and setting: as for `CC(=O)NCCNc1nc(Nc2ccc3c(cnn3C)c2)ncc1C(F)(F)F` [Example 1(655), N-{2-[2-(1-methyl-1H-indazol-5-ylamino)-5-trifluoromethyl-pyrimidin-4-ylamino]-ethyl}-acetamide], the figure is less than 0.1 µM.
In the case of `CC(=O)NCCNc1nc(Nc2cccc(Br)c2)ncc1C(F)(F)F` [Example 2(012), 2-(3-bromo-phenylamino)-4-(2-acetylamino-ethylamino)-5-trifluoromethyl-pyrimidine], the IC50 was less than 0.1 µM.
Same read-out and setting: next, `CS(=O)(=O)NCCNc1nc(Nc2ccc(Cl)c(Cl)c2)ncc1C(F)(F)F` [Example 7(001), N-(2-[2-(3,4-dichloro-phenylamino)-5-trifluoromethyl-pyrimidin-4-ylamino]-ethyl)-methanesulphonamide]: less than 0.1 µM.

System in another data set: not given
Assay: not given
Conditions: not given
For orientation: melting point means the temperature, or range, at which the solid turns liquid. On to `CNC(=O)c1ccc(Nc2ncc(C(F)(F)F)c(NCCNC(C)=O)n2)cc1` [Example 8, 4-[4-(2-acetylamino-ethylamino)-5-trifluoromethyl-pyrimidin-2-ylamino]-N-methyl-benzamide], for which the melting point turned out to be 183 °C.
On the same count and under the same terms, as for `CC(=O)NCCNc1nc(Nc2ccc(Cl)c(Cl)c2)ncc1[N+](=O)[O-]` [Example 1, 2-(3,4-dichlorophenylamino)-4-(2-acetylamino-ethylamino)-5-nitro-pyrimidine], the figure is 200 to 201 °C.
On to `CC(=O)NCCNc1nc(Nc2cccc(CN3CCCCC3)c2)ncc1C(F)(F)F` [Example 11, N-{2-[2-(3-piperidin-1-ylmethyl-phenylamino)-5-trifluoromethyl-pyrimidin-4-ylamino]-ethyl}-acetamide], for which the melting point was in the range of 93 to 94 °C.
Take `O=C(NCCNc1nc(Nc2ccc(Cl)c(Cl)c2)ncc1C(F)(F)F)c1ccccc1` [Example 7, N-(2-[2-(3,4-dichloro-phenylamino)-5-trifluoromethyl-pyrimidin-4-ylamino]-ethyl)-benzamide]: the melting point fell in the range of 160 to 162 °C.
`CC(=O)NCCNc1nc(Nc2cccc(C(=O)O)c2)ncc1C(F)(F)F` [Example 9, 3-[4-(2-acetylamino-ethylamino)-5-trifluoromethyl-pyrimidin-2-ylamino]-benzoic acid] came in with a melting point of 282 °C.
Compound `CC(=O)NCCNc1nc(Nc2ccc(C(=O)O)cc2)ncc1C(C)C` [Example 6, 4-[4-(2-acetylamino-ethylamino)-5-isopropyl-pyrimidin-2-ylamino]-benzoic acid] came in with a melting point of 275 to 278 °C.
The compound `CC(=O)NCCNc1nc(Nc2ccc(C(=O)O)cc2)ncc1[N+](=O)[O-].Cl` gave a melting point of 171 to 173 °C.
Still for that read-out and setting: next, `CC(=O)NCCNc1nc(Nc2cccc(NC(C)=O)c2)ncc1C(F)(F)F` [Example 10(000), N-(2-[2-(3-acetylamino-phenylamino)-5-trifluoromethyl-pyrimidin-4-ylamino]-ethyl)-acetamide]: 222 °C.

The values are drawn from US8420630B2 (Boehringer Ingelheim Pharma GmbH & Co. KG, priority 2001, dated 2013).
